Test results from PubChem BioAssay AID1963831 (Molecular Pharmacology Branch, DTP, NCI, 2024).
Where “and” joins values, the source holds several entries; their conditions need not be identical. Identical values can stand only once.

System: 889142-216-R-J1-PDC complex spheroid viability
Test: Anticancer human tumor 889142-216-R-J1-PDC patient-derived bladder carcinoma cell line growth inhibition [POLQ]
Conditions: for viability, T/C: stronger effect = lower value
Method: Multicellular complex tumor spheroid response to Polymerase (POL) inhibitors (novobiocin, ART-558, RP6685) in combination with a variety of drugs and investigational agents in selected tumor cell lines
The POL inhibitors (novobiocin, ART-558, and RP6685) were evaluated both individually and in combination with standard of care and investigational anticancer small molecules within a complex spheroid model of solid tumors. . Complex spheroids include a stromal component modeled by human endothelial cells (HUVEC) and fibroblasts modeled by human mesenchymal stem cells (MSCs). The concentration ranges selected for each drug and investigational agent were based upon clinically achievable concentrations if the clinical Cmax of the agent was known.
Compounds. The drugs and investigational agents: novobiocin (NSC847541), ART-558 (NSC835418), RP-6685 (NSC848927), peposertib (NSC802822), ceralasertib (NSC780249), elimusertib (NSC800525), camonsertib (NSC841442), AZD-1390 (NSC803789), olaparib (NSC753686), talazoparib (NSC767125), rucaparib (NSC756644), sotorasib (NSC818433), MRTX-1133 (NSC836407), SN-38 (NSC673596), topotecan (NSC609699), epotoside (NSC141540), doxorubicin (NSC123127), gemcitabine (NSC613327), 5-fluorouracil (NSC19893), paclitaxel (NSC125973), vemurafenib (NSC761431), MSA-2 (NSC828583), SN-011 (NSC837082), adavosertib (NSC754352), prexasertib (NSC758257), carboplatin (NSC241240) and oxaliplatin (NSC266046), were obtained from the National Cancer Institute (NCI) Developmental Therapeutics Program Chemical Repository (21). The FDA-approved anticancer drug set is available from the Developmental Therapeutics Program at https://dtp.cancer.gov/organization/dscb/obtaining/. […] The stock solutions were prepared in dimethyl sulfoxide (DMSO, Sigma-Aldrich, St. Louis, MO, cat. D2650), except for the platinum compounds which were prepared in saline (Quality Biological, Gaithersburg, MD, cat. 114-055-101), at 800-fold the tested concentration and stored at -70 degrees C prior to their use. All drugs and investigational agents were tested over a range starting from a high concentration at or near the clinical Cmax and decreasing in half-log increments. If the clinical Cmax for an agent had not been determined, the highest concentration tested was 10 microM, except for SN-38, which was tested at a high concentration of 1 microM.
Cell Culture. All cells were maintained in an incubator at 37 degrees C and 5% CO2 with 95% humidity. The PDC lines were cultured according to standard operating procedures established by the NCI PDMR (https://pdmr.cancer.gov). Table 3 of the manuscript, lists the cell lines along with the number of the three cell types plated to form the mct-spheroids and media for tumor cell growth. After thawing, all PDC lines, except 997537-175-T-J1-PDC and 415267-285-R-J2-PDC, were cultured in Matrigel-coated flasks prepared with a working solution of 1X Ham's F-12 nutrient mix, without supplementation (Thermo Fisher Scientific, cat. 11765054), 100 U/mL penicillin-streptomycin (Thermo Fisher Scientific, cat. 15140122), and 2.5% Matrigel (Corning Inc., Corning, NY, cat. 354248) for the first three passages. The two PDC lines 997537-175-T-J1-PDC and 415267-285-R-J2-PDC were cultured on uncoated flasks. The 857933-349-R-J2-PDC line was cultured in 6C/Colon 1B media containing advanced DMEM/F-12 (Thermo Fisher Scientific, cat. 12634028), 10 mM HEPES (Thermo Fisher Scientific, cat. 15630080), 1X GlutaMAX supplement (Thermo Fisher Scientific, cat. 35050061), 0.1 mg/mL primocin (InvivoGen, San Diego, CA, cat. ant-pm-2), 10% defined fetal bovine serum, heat inactivated (HyClone Laboratories Inc., Logan, UT, cat. SH30070.03HI), 50% L-WRN conditioned media (ATCC, cat. CRL-3276), 1.25 mM N-Acetyl-L-cysteine (Sigma-Aldrich, cat. A9165), 10 mM nicotinamide (Sigma-Aldrich, cat. N0636), 1X B-27 supplement (Thermo Fisher Scientific, cat. 17504044), 1X N-2 supplement (Thermo Fisher Scientific, cat. […]
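Also: spheroids exposed to compounds for seven days.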
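For viability, T/C in this document: 100% = DMSO vehicle control viability.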

SMILES: CCc1c2c(nc3ccc(O)cc13)-c1cc3c(c(=O)n1C2)COC(=O)[C@]3(O)CC
- viability, T/C (compound 0.00316 µM): 58.4% and 64.9%
- viability, T/C (compound 0.01 µM): 50.7% and 50.6%
- viability, T/C (compound 0.0316 µM): 40.2% and 47.8%
- viability, T/C (compound 0.1 µM): 33.7% and 31.8%
- viability, T/C (compound 0.316 µM): 29.5% and 27.7%
- viability, T/C (compound 1 µM): 11.7% and 9.45%
- IC50 (curve of compound): 10.9 nM and 17.3 nM

SMILES: O=C(Nc1ccc(O)c(NS(=O)(=O)c2ccc(F)cc2)c1)c1ccc(-c2ccccc2)cc1 + Nc1ccc(C#CCN(C(=O)Cc2ncc(C(F)(F)F)cc2C(F)(F)F)c2ccc(F)cc2)nn1
- IC50 (curve of first compound, second compound 0.0316 µM): > 10000 nM
- IC50 (curve of first compound, second compound 0.1 µM): > 10000 nM
- IC50 (curve of first compound, second compound 0.316 µM): > 10000 nM
- IC50 (curve of first compound, second compound 1 µM): > 10000 nM
- IC50 (curve of first compound, second compound 3.16 µM): > 10000 nM
- IC50 (curve of first compound, second compound 10 µM): > 10000 nM
- viability, T/C (second compound 0.0316 µM, first compound 0.0316 µM): 118%
- viability, T/C (second compound 0.0316 µM, first compound 0.1 µM): 101%
- viability, T/C (second compound 0.0316 µM, first compound 0.316 µM): 83.9%
- viability, T/C (second compound 0.0316 µM, first compound 1 µM): 110%
- viability, T/C (second compound 0.0316 µM, first compound 3.16 µM): 127%
- viability, T/C (second compound 0.0316 µM, first compound 10 µM): 72%
- viability, T/C (second compound 0.1 µM, first compound 0.0316 µM): 104%
- viability, T/C (second compound 0.1 µM, first compound 0.1 µM): 90.7%
- viability, T/C (second compound 0.1 µM, first compound 0.316 µM): 94.1%
- viability, T/C (second compound 0.1 µM, first compound 1 µM): 126%
- viability, T/C (second compound 0.1 µM, first compound 3.16 µM): 129%
- viability, T/C (second compound 0.1 µM, first compound 10 µM): 87.3%
- viability, T/C (second compound 0.316 µM, first compound 0.0316 µM): 96.2%
- viability, T/C (second compound 0.316 µM, first compound 0.1 µM): 82.1%
- viability, T/C (second compound 0.316 µM, first compound 0.316 µM): 110%
- viability, T/C (second compound 0.316 µM, first compound 1 µM): 105%
- viability, T/C (second compound 0.316 µM, first compound 3.16 µM): 134%
- viability, T/C (second compound 0.316 µM, first compound 10 µM): 73%
- viability, T/C (second compound 1 µM, first compound 0.0316 µM): 117%
- viability, T/C (second compound 1 µM, first compound 0.1 µM): 84.7%
- viability, T/C (second compound 1 µM, first compound 0.316 µM): 97.7%
- viability, T/C (second compound 1 µM, first compound 1 µM): 148%
- viability, T/C (second compound 1 µM, first compound 3.16 µM): 119%
- viability, T/C (second compound 1 µM, first compound 10 µM): 78.4%
- viability, T/C (second compound 3.16 µM, first compound 0.0316 µM): 105%
- viability, T/C (second compound 3.16 µM, first compound 0.1 µM): 83.4%
- viability, T/C (second compound 3.16 µM, first compound 0.316 µM): 135%
- viability, T/C (second compound 3.16 µM, first compound 1 µM): 139%
- viability, T/C (second compound 3.16 µM, first compound 3.16 µM): 127%
- viability, T/C (second compound 3.16 µM, first compound 10 µM): 64.1%
- viability, T/C (second compound 10 µM, first compound 0.0316 µM): 110%
- viability, T/C (second compound 10 µM, first compound 0.1 µM): 88%
- viability, T/C (second compound 10 µM, first compound 0.316 µM): 118%
- viability, T/C (second compound 10 µM, first compound 1 µM): 113%
- viability, T/C (second compound 10 µM, first compound 3.16 µM): 101%
- viability, T/C (second compound 10 µM, first compound 10 µM): 81%

SMILES: CC[C@@]1(O)C(=O)OCc2c1cc1n(c2=O)Cc2cc3c(CN(C)C)c(O)ccc3nc2-1
- viability, T/C (compound 0.000316 µM): 110% and 87.5%
- viability, T/C (compound 0.001 µM): 96.5% and 89.5%
- viability, T/C (compound 0.00316 µM): 103% and 85.1%
- viability, T/C (compound 0.01 µM): 91.3% and 89.6%
- viability, T/C (compound 0.0316 µM): 60.9% and 63.7%
- viability, T/C (compound 0.1 µM): 60.2% and 49.3%
- IC50 (curve of compound): > 100 nM and 94.7 nM

SMILES: COC1C(OC(N)=O)C(O)C(Oc2ccc3c(O)c(NC(=O)c4ccc(O)c(CC=C(C)C)c4)c(=O)oc3c2C)OC1(C)C (stereo not drawn)
- viability, T/C (compound 0.0316 µM): 109% [middle of 12 runs]
- viability, T/C (compound 0.316 µM): 94.6% [middle of 12 runs]
- IC50 (compound alone, run of 01/08/2024): > 10000 nM

SMILES: CC1COCCN1c1cc(-c2ccnn2C)c2ccnc(-c3ccn[nH]3)c2n1 (stereo not drawn)
- viability, T/C (compound 0.0316 µM): 69.8% and 79.1% and 76.9%
- viability, T/C (compound 0.1 µM): 54.8% and 52.9% and 67.8%
- viability, T/C (compound 0.316 µM): 47% and 40.5% and 47.4%
- viability, T/C (compound 1 µM): 38.7% and 46.3% and 39.9%
- viability, T/C (compound 3.16 µM): 32.2% and 36.3% and 36.2%
- viability, T/C (compound 10 µM): 28.1% and 25% and 30.5%
- IC50 (curve of compound): 206 nM and 182 nM and 308 nM

SMILES: C=CC(=O)N1CCN(c2nc(=O)n(-c3c(C)ccnc3C(C)C)c3nc(-c4c(O)cccc4F)c(F)cc23)C(C)C1 (stereo not drawn)
- viability, T/C (compound 0.0316 µM): 85.5% and 87.6% and 108%
- viability, T/C (compound 0.1 µM): 90.5% and 106% and 83.7%
- viability, T/C (compound 0.316 µM): 123% and 117% and 93.5%
- viability, T/C (compound 1 µM): 92.1% and 126% and 116%
- viability, T/C (compound 3.16 µM): 150% and 108% and 109%
- viability, T/C (compound 10 µM): 106% and 105% and 97.8%
- IC50 (curve of compound): > 10000 nM
